In patent US4080466A, “Pharmaceutical compositions containing 4-hydroxyl-1,3-dithiolan-2-ylidene malonates” (Nihon Nohyaku Co., Ltd., priority 1976, dated 1978):
“Also recorded” adds a separate entry of the source.

Columns and labels:
[1] = test system: acute liver damage induced by carbon tetrachloride; assay: Protective Effect on Acute Liver Damage associated with Centrilobular Necrosis (carbon tetrachloride); format: in vivo, mice (dd-strain); conditions: 250 mg/kg oral, average of 5 to 6 mice; for Liver damage index: 6 h before CCl4 (0.05 ml/kg oral), score 0 Normal, 2 slight, 4 clear, 6 heavy damage; for p-GPT (plasma glutamic-pyruvic transaminase activity): 6 h before CCl4, 24 h after CCl4, values over 1,000 regarded as 1,000
Text: Carbon tetrachloride (CCl4) administration induces centrilobular necrosis of the liver associated with loss of diphosphopyridine nucleotide, hepatic glycogen, coenzyme A and increase in neutral fat. Release of several enzymes from the hepatocytes, and increase of enzyme activities in the plasma are recognized as the result of the damage of the liver. A suitable means for evaluating the degree of damage induced by CCl4 or the degree of protection afforded by drugs is to study the plasma glutamic-pyruvic transminase (p-GPT) activity.
Methods: The test compounds were dissolved or suspended in olive oil and administered orally at the dose of 250 mg/kg to the mice (Four-week-old male mice-dd strain). After 6 hours, CCl4 was administered orally (0.05 ml/kg as olive oil solution). Animals were killed 24 hours after CCl4 administration, and the liver was grossly observed. The plasma was obtained by centrifugation. Activities of p-GPT were determined by the method of Reitman and Frankel and expressed in Karmen units.
Score for liver damage index was as follows:
4 Clearly observable damage
Each figure indicates average of 5 to 6 mice. Values of p-GPT over 1,000 Karmen unit regarded as 1,000 for calculation of average for convenience.

[2] = test system: chronic liver damage induced by thioacetamide; assay: Therapeutic Effect on Chronic Liver Damage (thioacetamide), BSP test; format: in vivo, rats (Spraque Dawley strain); conditions: normal diet + 0.2% of compound after 12 times TAA 100 mg/kg
Method: In the tests of this Example, TAA was repeatedly administered to animals to prepare test animals suffering from somewhat chronic liver damages, and then the present compounds were administered thereto to know whether or not the compounds were effective against chronic hepatitis.
The degree of the liver damage and the therapeutic effects of the compounds were evaluated according to BSP test. The BSP test is a method in which BSP (sulfobromophthalein sodium), a dye known to be quickly metabolized in and excreted from the liver, is intravenously injected into animals and, after a definite period of time, the blood is taken out to measure the amount of BSP remaining in the plasma. In case the animals are suffering from the lever damage, the dye will remain, according to the degree of the damage, at the stage where a major portion of BSP metabolized and excreted in the case of normal animals.
Five groups of rats (Spraque Dawley strain) were treated as follows:
Group A: The rats were orally administered with 100 mg/kg of thioacetamide,at 3 days intervals for 36 days (12 times of the administration), then were submitted for 10 days to a normal diet.
Group B: The rats were orally administered with 100 mg/kg of thioacetamide at 3 days intervals for 36 days (12 times of the administration), then were submitted for 10 days to the normal diet + 0.2% of compound 4.
Group C: The rats were orally administered with 100 mg/kg of thioacetamide at 3 days intervals for 36 days (12 times of the administration), then were submitted for 10 days to the normal diet + 0.2% of compound 2.
Group D: The rats were orally administered with 100 mg/kg of thioacetamide at 3 days intervals for 36 days (12 times of the administration), then were submitted for 10 days to the normal diet + 0.2% of anethol trithion.
Group E: The rats were submitted to the normal diet as the control.
Five rats were sacrificed from each group at appropriate intervals for BSP (sulfobromophthalein) test, the results of which were shown as amounts (mg) of BSP remaining in 1 dl of plasma.

[3] = test system: fatty liver induced by carbon tetrachloride; assay: Therapeutic Effect on Fatty Liver (carbon tetrachloride); format: in vivo, rats (SD strain); conditions: 10 days; for Degree of fatty liver (histopathological examination): one symbol per animal
Method: Methods: […] The treated animals were left for 3 days after the last administration to maximize the manifestation of fatty liver. […] It was orally given everyday for 10 days at the dose of 50 or 250 mg/kg. On the 11th day, the animals were sacrificed. The therapeutic effect was evaluated by determining the content of liquid in the liver (triglyceride and total lipid) and examining the histopathological changes. Triglyceride and total lipid were determined colorimetrically by chromotropic acid method and Bragdon's oxidation method, respectively. Indices for the histopathological change is as follows: […]

bile flow = assay: Cholagogic Action: effect on bile flow; format: in vivo, rats (SD-JCL strain); conditions: 200 mg/kg oral; for Bile flow: before treatment = 100; for Quantity of total excreted bile relative to control: 5 hours after administration
Method: (§1) Drugs as choleresis are used for patients to improve bile flow. In the present example, the effect of the compound of the invention on the quantities of bile and biliary salt is investigated. Methods:
(§2) The male rats (4 week-aged, SD-JCL strain) were anesthetized with sodium pentobarbital (37.5 mg/kg, intraperitoneal injection). The abdominal cavity was opened through a midline incision. The common bile duct was catheterized with polyethylene tube o.d. 0.8 mm. The catheter was brought to the outside through the abdominal incision would prior to closing. Bile was collected from the catheter continuously with time intervals of one hour. The quantity of bile produced in one hour was determined by weighing and that of biliary salt was determined by enzymatic method (Ikagaku Jikkenho Koza 1B, Biological Constituents II, edited by Tamio YAMAKAWA). The amount of biliary salt was represented in the term of cholic acid equivalent.
(§3) In the representation of the results, the quantities of bile and biliary salt produced in one hour prior to the administration of drug were taken as 100. The compound of this invention was orally administered at the dose of 200 mg/kg. As reference, anethol trithion was used.

[4] = test system: excretion of biliary salt; assay: Cholagogic Action: effect on the excretion of biliary salt; format: in vivo, rats (SD-JCL strain); conditions: 200 mg/kg oral; for Excretion of biliary salt: before treatment = 100; for Amount of total excreted biliary salts relative to control: 5 hours after administration
Method: as §1, §2, §3

[5] = test system: alcohol metabolic function of liver; assay: Effect on Concentration of Ethyl alcohol in the Blood; format: in vivo, mice; conditions: 250 mg/kg oral, 6 h before ethyl alcohol 1,000 mg/kg
Method: After 6 hours, 1,000 mg/kg of ethyl alcohol was given orally. Blood was taken in a capillary from caudal vein at the time indicated in the results. The plasma was obtained by centrifugation. The concentration of ethyl alcohol in the plasma was measured by FID type gas liquid chromatography. Five mice were used for each group.

Compound: CCOC(=O)C(C(=O)OC(C)C)=C1SCC(O)S1 (centres unmarked) [Compound 4, Ethyl isopropyl 4-hydroxy-1,3-dithiolan-2-ylidene malonate]
- Liver damage index [1]: 0.1
- p-GPT (plasma glutamic-pyruvic transaminase activity) [1]: 40 Karmen units
- BSP remaining in plasma ([2]; 2 days): 7.2 ± 1.2 mg/dL
- BSP remaining in plasma ([2]; 5 days): 3.6 ± 0.5 mg/dL
- BSP remaining in plasma ([2]; 10 days): 0.3 ± 0.1 mg/dL
- Total lipid ([3]; 50 mg/kg oral): 87.6 ± 7.2 mg/g-liver
- Triglyceride ([3]; 50 mg/kg oral): 40.6 ± 8.2 mg/g-liver
- Degree of fatty liver (histopathological examination) ([3]; 50 mg/kg oral): + + + ++; also recorded: ± ± + ± ± ± +
- Total lipid ([3]; 250 mg/kg oral): 70.3 ± 7.7 mg/g-liver
- Triglyceride ([3]; 250 mg/kg oral): 25.3 ± 4.2 mg/g-liver
- Degree of fatty liver (histopathological examination) ([3]; 250 mg/kg oral): ± ± ± - - - ±
- Bile flow (bile flow; 1 hour after treatment): 108 ± 2.1
- Bile flow (bile flow; 2 hours after treatment): 120 ± 7.7
- Bile flow (bile flow; 3 hours after treatment): 107 ± 6.8
- Bile flow (bile flow; 4 hours after treatment): 98 ± 7.2
- Quantity of total excreted bile relative to control (bile flow): 1.11 times
- Bile flow (bile flow; 5 hours after treatment): 88 ± 5.3
- Excretion of biliary salt ([4]; 1 hour after treatment): 100 ± 7.2
- Excretion of biliary salt ([4]; 2 hours after treatment): 106 ± 7.8
- Excretion of biliary salt ([4]; 3 hours after treatment): 98 ± 4.3
- Excretion of biliary salt ([4]; 4 hours after treatment): 90 ± 7.7
- Amount of total excreted biliary salts relative to control [4]: 1.37 times
- Excretion of biliary salt ([4]; 5 hours after treatment): 82 ± 6.8
- Concentration of Ethyl alcohol in Plasma ([5]; 0 min): 9±4 ppm
- Concentration of Ethyl alcohol in Plasma ([5]; 5 min): 730±92 ppm
- Concentration of Ethyl alcohol in Plasma ([5]; 15 min): 536±113 ppm
- Concentration of Ethyl alcohol in Plasma ([5]; 30 min): 373±105 ppm
- Concentration of Ethyl alcohol in Plasma ([5]; 60 min): 7±2 ppm

Compound: CC(C)OC(=O)C(C(=O)OC(C)C)=C1SCC(O)S1 (centres unmarked) [Compound 2, Diisopropyl 4-hydroxy-1,3-dithiolan-2-ylidene malonate]
- Liver damage index [1]: 0.1
- p-GPT (plasma glutamic-pyruvic transaminase activity) [1]: 20 Karmen units
- BSP remaining in plasma ([2]; 2 days): 7.0 ± 2.8 mg/dL
- BSP remaining in plasma ([2]; 5 days): 3.1 ± 0.7 mg/dL
- BSP remaining in plasma ([2]; 10 days): 0.8 ± 0.2 mg/dL
- Total lipid ([3]; 50 mg/kg oral): 82.3 ± 15.1 mg/g-liver
- Triglyceride ([3]; 50 mg/kg oral): 38.6 ± 8.5 mg/g-liver
- Degree of fatty liver (histopathological examination) ([3]; 50 mg/kg oral): ± ± + ± ± + ±
- Total lipid ([3]; 250 mg/kg oral): 68.3 ± 10.3 mg/g-liver
- Triglyceride ([3]; 250 mg/kg oral): 21.6 ± 7.3 mg/g-liver
- Degree of fatty liver (histopathological examination) ([3]; 250 mg/kg oral): - - ± ± ± ± -
- Bile flow (bile flow; 1 hour after treatment): 112 ± 2.4
- Bile flow (bile flow; 2 hours after treatment): 117 ± 6.8
- Bile flow (bile flow; 3 hours after treatment): 101 ± 7.0
- Bile flow (bile flow; 4 hours after treatment): 97 ± 8.3
- Quantity of total excreted bile relative to control (bile flow): 1.13 times
- Bile flow (bile flow; 5 hours after treatment): 80 ± 7.3
- Excretion of biliary salt ([4]; 1 hour after treatment): 102 ± 7.3
- Excretion of biliary salt ([4]; 2 hours after treatment): 100 ± 5.8
- Excretion of biliary salt ([4]; 3 hours after treatment): 106 ± 7.9
- Excretion of biliary salt ([4]; 4 hours after treatment): 97 ± 7.2
- Amount of total excreted biliary salts relative to control [4]: 1.43 times
- Excretion of biliary salt ([4]; 5 hours after treatment): 90 ± 5.3
- Concentration of Ethyl alcohol in Plasma ([5]; 0 min): 10±7 ppm
- Concentration of Ethyl alcohol in Plasma ([5]; 5 min): 711±95 ppm
- Concentration of Ethyl alcohol in Plasma ([5]; 15 min): 558±104 ppm
- Concentration of Ethyl alcohol in Plasma ([5]; 30 min): 426±96 ppm
- Concentration of Ethyl alcohol in Plasma ([5]; 60 min): 13±6 ppm
